Data: patent US20100099561A1, “HETEROBICYCLIC ALKYLTHIO-BRIDGED ISOXAZOLINES” (E.I. DU PONT DE NEMOURS AND COMPANY, priority 2008, published 2010)

How the values were obtained:
Type in all cases: in vivo
[1] = test system: Italian ryegrass (Lolium multiflorum); assay: Test B preemergence, Italian ryegrass; details: Preemergence, scale 0 to 100
Text: (§1) Seeds of plant species selected from blackgrass (Alopecurus myosuroides), downy bromegrass (Bromus tectorum), green foxtail (Setaria viridis), Italian ryegrass (Lolium multiflorum), wheat (Triticum aestivum), wild oat (Avena fatua), catchweed bedstraw (Galium aparine), bermudagrass (Cynodon dactylon), Surinam grass (Brachiaria decumbens), cocklebur (Xanthium strumarium), corn (Zea mays), large crabgrass (Digitaria sanguinalis), woolly cupgrass (Eriochloa villosa), giant foxtail (Setaria faberii), goosegrass (Eleusine indica), johnsongrass (Sorghum halepense), kochia (Kochia scoparia), lambsquarters (Chenopodium album), morningglory (Ipomoea coccinea), nightshade (eastern black nightshade, Solanum ptycanthum), yellow nutsedge (Cyperus esculentus), pigweed (Amaranthus retroflexus), ragweed (common ragweed, Ambrosia elatior), soybean (Glycine max), sunflower (common oilseed sunflower, Helianthus annuus), Russian thistle (Salsola kali), and velvetleaf (Abutilon theophrasti) were planted into a blend of loam soil and sand and treated preemergence with test compounds formulated in a non-phytotoxic solvent mixture which included a surfactant. Treated plants and controls were maintained in a greenhouse for 13 to 15 days, after which time all species were compared to controls and visually evaluated. Plant response ratings, summarized in Table B, are based on a scale of 0 to 100 where 0 is no effect and 100 is complete control. A dash (-) response means no test result.

kochia (Kochia scoparia) = assay: Test B preemergence, kochia; details: scale 0 to 100
Text: as §1

[2] = test system: barnyardgrass (Echinochloa crus-galli); assay: Test A postemergence, barnyardgrass; details: 0 to 100 scale (0 no effect, 100 complete control)
Outline: (§2)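 Greenhouse pre/postemergence test, loam–sand soil. Postemergence plants one- to two-leaf, 2–10 cm. Visual injury rating ~10 d after treatment, 0–100 vs untreated.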

[3] = test system: Russian thistle (Salsola kali); assay: Test B preemergence, Russian thistle; details: scale 0 to 100
Text: as §1

[4] = test system: green foxtail (Setaria viridis); assay: Test B preemergence, green foxtail; details: scale 0 to 100
Text: as §1

[5] = test system: large crabgrass (Digitaria sanguinalis); assay: Test A postemergence, large crabgrass; details: 0 to 100 scale (0 no effect, 100 complete control)
Outline: as §2

[6] = test system: cocklebur (Xanthium strumarium); assay: Test B preemergence, cocklebur; details: scale 0 to 100
Text: as §1

[7] = test system: downy bromegrass (Bromus tectorum); assay: Test B preemergence, downy bromegrass; details: scale 0 to 100
Text: as §1

Row | SMILES | Plant response rating, Ryegrass, Italian ([1]; 16 g ai/ha) | Plant response rating, Ryegrass, Italian ([1]; 31 g ai/ha) | Plant response rating, Ryegrass, Italian ([1]; 62 g ai/ha) | Plant response rating, Kochia (kochia (Kochia scoparia); 16 g ai/ha) | Plant response rating, Kochia (kochia (Kochia scoparia); 62 g ai/ha) | Plant response rating, Barnyardgrass ([2]; 125 g ai/ha) | Plant response rating, Barnyardgrass ([2]; 500 g ai/ha) | Plant response rating, Foxtail, Green ([4]; 16 g ai/ha) | Plant response rating, Foxtail, Green ([4]; 31 g ai/ha) | Plant response rating, Foxtail, Green ([4]; 62 g ai/ha) | Plant response rating, Crabgrass, Large ([5]; 125 g ai/ha) | Plant response rating, Crabgrass, Large ([5]; 500 g ai/ha) | Plant response rating, Cocklebur ([6]; 16 g ai/ha) | Plant response rating, Cocklebur ([6]; 31 g ai/ha) | Plant response rating, Cocklebur ([6]; 62 g ai/ha) | Plant response rating, Bromegrass, Downy ([7]; 16 g ai/ha) | Plant response rating, Bromegrass, Downy ([7]; 31 g ai/ha) | Plant response rating, Bromegrass, Downy ([7]; 62 g ai/ha) | Plant response rating, Ryegrass, Italian ([1]; 125 g ai/ha) | Plant response rating, Foxtail, Green ([4]; 125 g ai/ha) | also measured
1 | CC1(C)CC(S(=O)(=O)Cc2c(C(F)(F)F)nc3n(c2=O)CCO3)=NO1 [Compound 2, 6-[[(4,5-dihydro-5,5-dimethyl-3-isoxazolyl)sulfonyl]methyl]-2,3-dihydro-7-(trifluoromethyl)-5H-oxazolo[3,2-α]pyrimidin-5-one] | 0 | 0 | 0 | 0 | 70 | 70 | 80 | 10 | 55 | 85 | 60 | 90 | 0 | 0 | 0 | 0 | 0 | 0 | – | – | Plant response rating, Kochia (kochia (Kochia scoparia); 8 g ai/ha): 0; Plant response rating, Kochia (kochia (Kochia scoparia); 31 g ai/ha): 75; Plant response rating, Russian Thistle ([3]; 8 g ai/ha): 0; Plant response rating, Russian Thistle ([3]; 16 g ai/ha): 0; Plant response rating, Russian Thistle ([3]; 31 g ai/ha): 0; Plant response rating, Russian Thistle ([3]; 62 g ai/ha): 0; Plant response rating, Foxtail, Green ([4]; 8 g ai/ha): 0; Plant response rating, Cocklebur ([6]; 8 g ai/ha): 0; Plant response rating, Bromegrass, Downy ([7]; 8 g ai/ha): 0
2 | CC1(C)CC(S(=O)(=O)Cc2c(C(F)(F)C(F)(F)F)nc3n(c2=O)CCC3)=NO1 [Compound 22] | 0 | 30 | 100 | 0 | 0 | 70 | 80 | 50 | 70 | 100 | 70 | 80 | 0 | 0 | 0 | 0 | 0 | 0 | 100 | 100 | Plant response rating, Kochia (kochia (Kochia scoparia); 31 g ai/ha): 0; Plant response rating, Kochia (kochia (Kochia scoparia); 125 g ai/ha): 70; Plant response rating, Russian Thistle ([3]; 31 g ai/ha): 0; Plant response rating, Russian Thistle ([3]; 62 g ai/ha): 30; Plant response rating, Russian Thistle ([3]; 125 g ai/ha): 60; Plant response rating, Cocklebur ([6]; 125 g ai/ha): 0; Plant response rating, Bromegrass, Downy ([7]; 125 g ai/ha): 60
3 | CC1(C)CC(S(=O)(=O)Cc2c(C(F)(F)C(F)(F)F)nc3n(c2=O)CCCC3)=NO1 [Compound 21] | 0 | 0 | 0 | 0 | 60 | 70 | 90 | 0 | 45 | 100 | 50 | 80 | 0 | 0 | 0 | 0 | 0 | 0 | 40 | 100 | Plant response rating, Kochia (kochia (Kochia scoparia); 125 g ai/ha): 80; Plant response rating, Russian Thistle ([3]; 16 g ai/ha): 0; Plant response rating, Russian Thistle ([3]; 31 g ai/ha): 60; Plant response rating, Russian Thistle ([3]; 62 g ai/ha): 65; Plant response rating, Russian Thistle ([3]; 125 g ai/ha): 85; Plant response rating, Cocklebur ([6]; 125 g ai/ha): 0; Plant response rating, Bromegrass, Downy ([7]; 125 g ai/ha): 60
4 | CC1(C)CC(S(=O)(=O)Cc2c(C(F)(F)Cl)nc3n(c2=O)CCC3)=NO1 [Compound 18] | 0 | 0 | 35 | 0 | 55 | 80 | 80 | 30 | 80 | 98 | 60 | 90 | 0 | 0 | 0 | 0 | 0 | 0 | 40 | 98 | Plant response rating, Kochia (kochia (Kochia scoparia); 31 g ai/ha): 0; Plant response rating, Kochia (kochia (Kochia scoparia); 125 g ai/ha): 100; Plant response rating, Cocklebur ([6]; 125 g ai/ha): 0; Plant response rating, Bromegrass, Downy ([7]; 125 g ai/ha): 20
5 | CC1(C)CC(S(=O)(=O)Cc2c(C(F)(F)F)nc3n(c2=O)CCC3)=NO1 [Compound 11, 3-[[(4,5-dihydro-5,5-dimethyl-3-isoxazolyl)sulfonyl]methyl]-7,8-dihydro-2-(trifluoromethyl)pyrrolo[1,2-α]pyrimidin-4(6H)-one] | 0 | 0 | 0 | – | – | 80 | 90 | 20 | 70 | 100 | 80 | 90 | 0 | 0 | 0 | 0 | 0 | 0 | 90 | 100 | Plant response rating, Cocklebur ([6]; 125 g ai/ha): 0; Plant response rating, Bromegrass, Downy ([7]; 125 g ai/ha): 65
6 | CC1(C)CC(S(=O)(=O)Cc2c(C(F)(F)F)nc3ccsn3c2=O)=NO1 [Compound 16] | 0 | 0 | 30 | 0 | 0 | 80 | 90 | 0 | 20 | 85 | 80 | 90 | 0 | 0 | 0 | 0 | 0 | 0 | 60 | 98 | Plant response rating, Kochia (kochia (Kochia scoparia); 31 g ai/ha): 0; Plant response rating, Kochia (kochia (Kochia scoparia); 125 g ai/ha): 0; Plant response rating, Cocklebur ([6]; 125 g ai/ha): 0; Plant response rating, Bromegrass, Downy ([7]; 125 g ai/ha): 30
